Source: PubChem BioAssay (NCI)
Values joined by “and” are separate entries in the source; they are usually repeats but may differ in a detail not shown here. Equal values may be shown once.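 These data come from cells grown in 96-well plates and exposed to compound for 48 hours at five concentrations. Here, GI50 denotes the concentration required for 50% inhibition of growth. TGI marks complete inhibition of growth.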

Tests used:
Experiment in all cases: inhibition of tumour cell growth, NCI panel, 48 h
A549 NSCLC = system: A549 NSCLC
NCI-H226 lung = system: NCI-H226 lung
SK-MEL-5 melanoma = system: SK-MEL-5 melanoma
UACC-62 melanoma = system: UACC-62 melanoma
MALME-3M melanoma = system: MALME-3M melanoma
U251 CNS = system: U251 CNS
MOLT-4 leukemia = system: MOLT-4 leukemia
OVCAR-5 ovarian = system: OVCAR-5 ovarian
HOP-92 NSCLC = system: HOP-92 NSCLC
MDA-N = system: MDA-N

| Compound | TGI (A549 NSCLC) [µM] | TGI (NCI-H226 lung) [µM] | TGI (SK-MEL-5 melanoma) | TGI (UACC-62 melanoma) [µM] | TGI (MALME-3M melanoma) [µM] | TGI (U251 CNS) [µM] | TGI (MOLT-4 leukemia) | TGI (OVCAR-5 ovarian) [µM] | TGI (HOP-92 NSCLC) [µM] | TGI (MDA-N) [µM] | GI50 (A549 NSCLC) [µM] | GI50 (NCI-H226 lung) [µM] | GI50 (SK-MEL-5 melanoma) | GI50 (UACC-62 melanoma) [µM] | GI50 (MALME-3M melanoma) [µM] | GI50 (U251 CNS) [µM] | GI50 (MOLT-4 leukemia) [µM] | GI50 (OVCAR-5 ovarian) [µM] | GI50 (HOP-92 NSCLC) [µM] | GI50 (MDA-N) [µM] |
| --- | --- | --- | --- | --- | --- | --- | --- | --- | --- | --- | --- | --- | --- | --- | --- | --- | --- | --- | --- | --- |
| COc1cc2c3c(cc(Cl)nc3c1OC)C(=O)C(=O)N2 | 38.6 | 41.5 | 32.4 µM | 18.1 | 3.82 | 30.3 | > 31.2 µM | 32.2 | 3.44 |  |  |  |  |  |  |  |  |  |  |  |
| NCCCCNCCCNC(=O)CNC(=O)CC(O)C(N)CCCC(NC(=O)C(CN)NC(=O)C(O)CNC(=O)CC(N)c1ccc(O)cc1)C(=O)O (stereo unspecified) | > 10 | > 10 | > 10 µM | > 10 | > 10 | > 10 | > 10 µM | > 10 | > 10 | > 10 |  |  |  |  |  |  |  |  |  |  |
| CNC(=S)NNc1ncnc2c1c(-c1ccc(Cl)cc1)cn2-c1ccc(C)cc1 | 19.2 | 57.5 | 20.8 µM | 40.7 | 33 | 24.1 | > 100 µM | 29 | 30.8 | 28 |  |  |  |  |  |  |  |  |  |  |
| N#Cc1nc(CCCN2C(=O)c3ccccc3C2=O)oc1N | > 100 | > 100 | > 100 µM |  | > 100 | > 100 | > 100 µM | > 100 |  | > 100 |  |  |  |  |  |  |  |  |  |  |
| CCN(CCCCCCCCCCN1CC(=O)N(CCCCCCCCCCN(CC)Cc2ccccc2OC)CC1=O)Cc1ccccc1OC | 4.54 | 3.94 | 2.7 µM | 3.89 | 3.47 | 2.58 | 8.04 µM | 15.1 | 2.34 |  | 1.65 | 1.96 | 1.36 µM | 2.06 | 1.64 | 1.15 | 1.8 | 3.36 | 0.359 |  |
| Cc1nnc2n1-c1ccccc1N(Cc1ccccc1)CC2 | > 100 | > 100 | > 100 µM | > 100 | > 100 | > 100 | 89.5 µM | > 100 | 51.9 | > 100 |  |  |  |  |  |  |  |  |  |  |
| COc1ccc(C2Oc3c(OC)cc(CCCO)cc3C2CO)cc1OC (stereo unspecified) | > 100 | > 100 | > 100 µM and 31.1 µM | > 100 | > 100 | > 100 | 96.7 µM and > 100 µM | > 100 | > 100 | > 100 |  |  | 36 µM and 12 µM |  |  |  |  |  |  |  |
| CCN1CCN(Cc2ccc(NC(=O)Nc3ccc(-n4ccc5c(NC(=O)c6ccccc6)nccc54)cc3)cc2C(F)(F)F)CC1 |  | 4.84 | 2.02 µM |  |  |  |  |  | 59.6 |  |  | 1.54 | 0.764 µM |  |  |  |  |  | 13.3 |  |
| CCCCCCc1cc2cc(-c3csc(-c4ccc(OC)cc4)n3)c(=O)oc2cc1O | 32.8 | 30.6 | 47.7 µM | 24.6 |  | 18.7 | > 100 µM | 79.9 | 16.2 |  |  |  |  |  |  |  |  |  |  |  |
| Cc1cccc(NS(=O)(=O)c2ccc(N=Nc3c(O)c(C(=O)O)cc4ccccc34)cc2)n1 | > 100 | > 100 | > 100 µM | > 100 | > 100 | > 100 | > 100 µM | > 100 | > 100 |  |  |  |  |  |  |  |  |  |  |  |
| C=C1C[C@@H]2CC[C@@]34C[C@H]5O[C@H]6[C@@H](O3)[C@H]3O[C@H](CC[C@@H]3O[C@H]6[C@H]5O4)CC(=O)C[C@@H]3[C@@H](OC)[C@@H](C[C@H](O)CN)O[C@H]3C[C@H]3O[C@@H](CC[C@@H]1O2)C[C@@H](C)C3=C | > 1 | 0.00433 | 0.043 µM | > 1 | > 1 | > 0.199 | 0.0479 µM | > 1 | > 1 | 0.000354 |  |  |  |  |  |  |  | 0.00251 |  | 0.0001 |
| CCCCN1C(=O)CC2[C@@H]3CCc4cc(OC)ccc4C3CC[C@]2(C)C1=O (stereo partly specified) | > 10 | > 10 | > 10 µM | > 10 | > 10 | > 10 | > 10 µM | > 10 |  | > 10 |  |  |  |  |  |  |  |  |  |  |
| O=C1/C(=C/c2ccncc2)C(n2cccc2)c2c(Br)sc(Br)c21 (stereo unspecified) | 34.5 |  | 27.6 µM | 7.5 | 10.9 | 4.86 | 4.64 µM | 29.2 | 7.83 | 8.36 |  |  |  |  |  |  |  |  |  |  |
| COc1ccc(OC/C(N=Cc2ccncc2)=N/NC(=O)c2ccncc2)cc1 | > 100 | > 100 |  | > 100 | > 100 | > 100 | > 100 µM | > 100 | 96.4 | 39.8 |  |  |  |  |  |  |  |  |  |  |
| Cc1cc(OCc2nnc3sc(NC(=O)c4ccccc4)nn23)ccc1Cl | > 100 | > 100 | > 100 µM | > 100 | 42.2 | > 100 | > 100 µM | > 100 | 34.8 |  |  |  |  |  |  |  |  |  |  |  |
| COc1ccc2c(c1)-c1c(c3cc(OC)ccc3n1CCN(C)C)CC2 | 29.9 | 30 | 24.9 µM | 22.8 | 31 | 24.8 | 33.8 µM | 29.9 | 27.7 | 27.9 |  |  |  |  |  |  |  |  |  |  |
| Oc1c(OCc2nnc(CCCCCCCCc3nnc(COc4ccc5ccccc5c4O)o3)o2)ccc2ccccc12 | > 100 | > 100 | > 100 µM | > 100 | > 100 | > 100 | > 100 µM | > 100 | > 100 | > 100 |  |  |  |  |  |  |  |  |  |  |
| c1c(N2CCOCC2)ssc1=[N+]1CCOCC1 | > 100 | > 100 | > 100 µM | > 100 | > 100 | > 100 | > 100 µM | > 100 | > 100 |  |  |  |  |  |  |  |  |  |  |  |
| O=P(OCc1ccccc1)(OCc1ccccc1)C(O)/C=C/c1ccccc1 (stereo unspecified) | > 100 | 78.3 | 34.6 µM | 31.4 | 38.2 | 27.4 | 48.1 µM | > 100 | 57.2 | 36 |  |  |  |  |  |  |  |  |  |  |
| N#C/C(=C\c1cccc(Br)c1)c1nc2ccccc2c(=O)[nH]1 | > 100 | > 100 | > 100 µM | > 100 | > 100 | > 100 | > 100 µM | > 100 | 53.2 | > 100 |  |  |  |  |  |  |  |  |  |  |
